Data: patent publication US7192956B2, “Methods of treating hormone-related conditions using cyclothiocarbamate derivatives” (Wyeth, priority 2002, dated 2007)
pIC50: −log10 of the molar value.

What was measured:
[1] = biological target: T1, androgen receptor (AR) (Mus musculus, UniProt P19091); assay: Anti-androgenic (AR antagonistic) activity, PRE-tk-luciferase reporter in L929 cells co-treated with DHT; type: cell-based; details: co-treated with 3 nM DHT
T1 construct: the L929 cells which express the AR but not the PR; endogenous in cells; host or cells: L929 cells
T1 sequence (P19091 1-899): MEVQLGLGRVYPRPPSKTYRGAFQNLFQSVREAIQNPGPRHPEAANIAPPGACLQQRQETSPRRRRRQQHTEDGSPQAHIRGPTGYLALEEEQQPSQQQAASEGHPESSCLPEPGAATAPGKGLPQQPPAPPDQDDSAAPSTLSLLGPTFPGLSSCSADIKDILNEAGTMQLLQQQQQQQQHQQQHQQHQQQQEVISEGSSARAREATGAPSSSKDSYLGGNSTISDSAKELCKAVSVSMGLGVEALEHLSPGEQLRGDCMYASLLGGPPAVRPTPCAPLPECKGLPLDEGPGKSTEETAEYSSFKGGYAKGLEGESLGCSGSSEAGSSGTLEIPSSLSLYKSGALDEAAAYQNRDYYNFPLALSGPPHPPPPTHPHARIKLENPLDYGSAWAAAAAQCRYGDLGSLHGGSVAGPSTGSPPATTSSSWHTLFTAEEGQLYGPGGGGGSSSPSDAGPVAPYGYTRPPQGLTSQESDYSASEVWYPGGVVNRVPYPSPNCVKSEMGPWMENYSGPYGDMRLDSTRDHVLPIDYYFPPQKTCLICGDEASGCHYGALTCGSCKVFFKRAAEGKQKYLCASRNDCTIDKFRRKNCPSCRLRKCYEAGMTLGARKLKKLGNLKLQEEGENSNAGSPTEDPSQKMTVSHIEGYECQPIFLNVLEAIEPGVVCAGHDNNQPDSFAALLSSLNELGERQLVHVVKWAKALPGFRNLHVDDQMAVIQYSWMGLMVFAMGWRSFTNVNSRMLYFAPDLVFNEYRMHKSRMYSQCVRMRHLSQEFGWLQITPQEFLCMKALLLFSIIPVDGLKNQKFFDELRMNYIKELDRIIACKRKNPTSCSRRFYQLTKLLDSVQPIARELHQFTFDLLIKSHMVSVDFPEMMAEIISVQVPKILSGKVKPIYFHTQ
Method: (§1) The androgen receptor (AR) agonistic and antagonistic activity of the compositions of the invention in the L929 cells which express the AR but not the PR was evaluated as described in Zhang et al., Steroids, 65(10–11): 637–643 (October–November 2000).
(§2) Cells were plated in 96-well plates at 25,000 cells/well in DMEM (Bio Whittaker) with 10% (v/v) fetal bovine serum (FBS). The next day, cells were infected with the adenovirus PRE-tk-luciferase reporter construct (2×10^9 pfu/ml particles) and kept in DMEM containing 10% charcoal stripped FBS for an additional 24 hours. […] To test the anti-androgenic activity, cells were co-treated with 3 nM DHT. Luciferase activity was measured 24 hours following the treatment.

[2] = biological target: T1, androgen receptor (AR); assay: AR agonistic activity, PRE-tk-luciferase reporter in L929 cells; type: cell-based; details: at the maximum concentration tested (i.e., 10 nM)
Method: as §1, §2

pIC50 ([1]; L929 cells expressing AR but not PR, PRE-tk-luciferase reporter, luciferase measured 24 hours after treatment): 6.96
antagonistic activity ([1]; L929 cells, nine point dose response): significant antagonistic activity
agonistic activity [2]: only marginal agonistic activity
SMILES: Cn1c(C#N)ccc1-c1ccc2c(c1)C(C)(C)OC(=S)N2 [5-(4,4-dimethyl-2-thioxo-1,4-dihydro-2H-3,1-benzoxazin-6-yl)-1-methyl-1H-pyrrole-2-carbonitrile]
